From paper PMC6269792, “Arylsulfonylamino-Benzanilides as Inhibitors of the Apical Sodium-Dependent Bile Salt Transporter (SLC10A2)” (Molecules, 2013)

Key:
Human ASBT = molecular target: T1, Human ASBT (Homo sapiens, UniProt Q12908); test: ASBT inhibition assay: [3H]-taurocholic acid uptake in HEK293T cells transiently transfected with human ASBT; type: cell-based; details: for inhibition at 10 µM: HEK-293T; for IC50: inhibitor concentration that gives 50% taurocholate uptake compared to no inhibitor control
T1 construct: expressed in transfected cells; host or cells: HEK293T
T1 sequence (Q12908 1-348): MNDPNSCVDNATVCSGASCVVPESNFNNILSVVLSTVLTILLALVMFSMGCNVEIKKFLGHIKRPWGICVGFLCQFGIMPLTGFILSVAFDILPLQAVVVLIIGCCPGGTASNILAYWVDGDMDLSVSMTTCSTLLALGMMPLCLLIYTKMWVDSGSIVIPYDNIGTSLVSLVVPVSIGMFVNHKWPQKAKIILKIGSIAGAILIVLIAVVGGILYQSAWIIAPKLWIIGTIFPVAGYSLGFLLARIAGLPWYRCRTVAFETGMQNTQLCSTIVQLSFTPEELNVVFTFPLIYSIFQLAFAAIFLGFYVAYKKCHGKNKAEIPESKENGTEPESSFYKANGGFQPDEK
Method: In vitro inhibitory activity of all target compounds against ASBT was evaluated using a radioisotope-based assay. All the newly synthesized derivatives were initially tested at 10 μM concentration (Table 1).
HEK293T was obtained from the American Type Culture Collection (Manassas, VA, USA), and grown in MEM supplemented with 100 U/mL penicillin and […] streptomycin and 10% heat-inactivated fetal bovine serum. Human ASBT expression construct was prepared as previously described. HEK293T cells were seeded in 12 well plates and transiently transfected with 0.5 μg/well pcDNA3.1/ASBT or negative control plasmid pcDNA3.1 using lipofactamine 2000 (Invitrogen, Carlsbad, CA, USA) according to the manufacturer’s instructions. Twenty-four hours after transfection, HEK293T cells were assayed for taurocholic acid uptake as previously described with minor modifications. […] To terminate the transport process, the plates were chilled on ice and the cells were immediately washed with ice-cold buffer three times. Cells were lysed with 0.3 mL lysis buffer (0.5% triton x-100) and shaken vigorously for 20 min. The radioactivity of the cell lysate was counted using a MicroBeta^2 Liquid Scintillation and Luminescence Counter (PerkinElmer Life Sciences). Protein concentration of the lysate was used to normalize uptake activity.
The inhibition rate was calculated using the following formula: Inhibition Rate (%) = [(1 − (A − C)/(B − C)] × 100
A, [^3H] uptake value of test compound in [^3H]-TCA buffer added to pcDNA3.1/ASBT transfected cells; B, [^3H] uptake value of DMSO (without inhibitor) in [^3H]-TCA buffer added to pcDNA3.1/ASBT transfected cells; C, [^3H] uptake value of Blank sample (DMSO) in [^3H]-TCA buffer added to empty vector (pcDNA3.1) transfected cells.

| SMILES | inhibition at 10 µM (Human ASBT) [%] | IC50 (Human ASBT) [nM] | melting point [°C] |
| --- | --- | --- | --- |
| O=C(Nc1ccc(Cl)cc1Cl)c1ccccc1NS(=O)(=O)c1cccc(OC(F)(F)F)c1 [Compound 5g1, N-(2,4-Dichlorophenyl)-2-(3-(trifluoromethoxy)phenylsulfonamido)benzamide] | 89.3 ± 3.3 | 910 ± 180 | 151.6 to 152.8 |
| COc1cccc(S(=O)(=O)Nc2ccccc2C(=O)Nc2cccc(OC(F)(F)F)c2)c1 [Compound 5f4, 2-(3-Methoxyphenylsulfonamido)-N-(3-(trifluoromethoxy)phenyl)benzamide] | 25.8 ± 2.1 |  | 149.3 to 150.8 |
| O=C(Nc1ccc(Cl)cc1Cl)c1ccccc1NS(=O)(=O)c1ccc([N+](=O)[O-])cc1 [Compound 5d1, N-(2,4-Dichlorophenyl)-2-(4-nitrophenylsulfonamido)benzamide] | 66.9 ± 3.5 |  | 220.6 to 221.3 |
| O=C(Nc1ccc(F)c(Cl)c1)c1ccccc1NS(=O)(=O)c1ccc([N+](=O)[O-])cc1 [Compound 5d2, N-(3-Chloro-4-fluorophenyl)-2-(4-nitrophenylsulfonamido)benzamide] | 75.5 ± 4.4 |  | 226.4 to 227.1 |
| O=C(Nc1cccc(OC(F)F)c1)c1ccccc1NS(=O)(=O)c1ccc([N+](=O)[O-])cc1 [Compound 5d4, N-(3-(Difluoromethoxy)phenyl)-2-(4-nitrophenylsulfonamido)benzamide] | 58.8 ± 4.3 |  | 203.9 to 205 |
| Cc1ccc(NC(=O)c2ccccc2NS(=O)(=O)c2cccc(F)c2)cc1C(F)(F)F [Compound 5e3, 2-(3-Fluorophenylsulfonamido)-N-(4-methyl-3-(trifluoromethyl)phenyl)benzamide] | 57.6 ± 2.9 |  | 168.8 to 169.6 |
| O=C(Nc1cccc(OC(F)F)c1)c1cccc(NS(=O)(=O)c2cccc([N+](=O)[O-])c2)c1 [Compound 5b2, N-(3-(Difluoromethoxy)phenyl)-3-(3-nitrophenylsulfonamido)benzamide] | 30.6 ± 4.3 |  | 159.8 to 160.6 |
| COc1cccc(S(=O)(=O)Nc2ccccc2C(=O)Nc2ccc(Cl)c(Cl)c2)c1 [Compound 5f5, N-(3,4-Dichlorophenyl)-2-(3-methoxyphenylsulfonamido)benzamide] | 20.1 ± 1.9 |  | 160.3 to 161.4 |
| COc1ccc(NC(=O)c2ccccc2NS(=O)(=O)c2cccc([N+](=O)[O-])c2)cc1O [Compound 5a6, N-(3-Hydroxy-4-methoxyphenyl)-2-(3-nitrophenylsulfonamido)benzamide] | 32.1 ± 3.3 |  | 168.9 to 170.1 |
| O=C(Nc1cc(Cl)cc(Cl)c1)c1ccccc1NS(=O)(=O)c1cccc([N+](=O)[O-])c1 [Compound 5a7, N-(3,5-Dichlorophenyl)-2-(3-nitrophenylsulfonamido)benzamide] | 56.3 ± 2.8 |  | 209.9 to 210.4 |
| COc1cccc(S(=O)(=O)Nc2ccccc2C(=O)Nc2ccc(C)c(C(F)(F)F)c2)c1 [Compound 5f3, 2-(3-Methoxyphenylsulfonamido)-N-(4-methyl-3-(trifluoromethyl)phenyl)benzamide] | 43 ± 3.2 |  | 165.7 to 166.6 |
| O=C(Nc1cccc(OC(F)F)c1)c1ccccc1NS(=O)(=O)c1cccc([N+](=O)[O-])c1 [Compound 5a3, N-(3-(Difluoromethoxy)phenyl)-2-(3-nitrophenylsulfonamido)benzamide] | 89 ± 2.6 | 2840 ± 520 | 127.4 to 128.2 |
| COc1cccc(S(=O)(=O)Nc2ccccc2C(=O)Nc2ccc(F)c(Cl)c2)c1 [Compound 5f2, N-(3-Chloro-4-fluorophenyl)-2-(3-methoxyphenylsulfonamido)benzamide] | 59.5 ± 3.6 |  | 181.9 to 183.2 |
| O=C(Nc1ccc(F)c(Cl)c1)c1ccccc1NS(=O)(=O)c1cccc(F)c1 [Compound 5e2, N-(3-Chloro-4-fluorophenyl)-2-(3-fluorophenylsulfonamido)benzamide] | 63.2 ± 3.8 |  | 178.6 to 179.9 |
| Cc1ccc(NC(=O)c2ccccc2NS(=O)(=O)c2ccc([N+](=O)[O-])cc2)cc1C(F)(F)F [Compound 5d3, N-(4-Methyl-3-(trifluoromethyl)phenyl)-2-(4-nitrophenylsulfonamido)benzamide] | 73.7 ± 3.8 |  | 198.8 to 199.6 |
| O=C(Nc1ccc(F)c(Cl)c1)c1cccc(NS(=O)(=O)c2cccc([N+](=O)[O-])c2)c1 [Compound 5b1, N-(3-Chloro-4-fluorophenyl)-3-(3-nitrophenylsulfonamido)benzamide] | 66.3 ± 5 |  | 161.3 to 162.6 |
| O=C(Nc1ccc(Cl)cc1Cl)c1ccccc1NS(=O)(=O)c1cccc(F)c1 [Compound 5e1, N-(2,4-Dichlorophenyl)-2-(3-fluorophenylsulfonamido)benzamide] | 42.6 ± 3.4 |  | 146.3 to 147.6 |
| O=C(Nc1cccc(Cl)c1)c1ccccc1NS(=O)(=O)c1cccc([N+](=O)[O-])c1 [Compound 5a9, N-(3-Chlorophenyl)-2-(3-nitrophenylsulfonamido)benzamide] | 46.9 ± 3.6 |  | 167.3 to 168.1 |
| O=C(Nc1cccc(OC(F)(F)F)c1)c1ccccc1NS(=O)(=O)c1cccc([N+](=O)[O-])c1 [Compound 5a4, 2-(3-Nitrophenylsulfonamido)-N-(3-(trifluoromethoxy)phenyl)benzamide] | 83.8 ± 3.4 | 1230 ± 120 | 141.4 to 142 |
| O=C(Nc1ccc(Cl)c(Cl)c1)c1ccccc1NS(=O)(=O)c1cccc(F)c1 [Compound 5e5, N-(3,4-Dichlorophenyl)-2-(3-fluorophenylsulfonamido)benzamide] | 40.6 ± 2.8 |  | 179.1 to 180.6 |
| O=C(Nc1cccc(OC(F)(F)F)c1)c1ccccc1NS(=O)(=O)c1cccc(OC(F)(F)F)c1 [Compound 5g4, N-(3-(Trifluoromethoxy)phenyl)-2-(3-(trifluoromethoxy)phenylsulfonamido)benzamide] | 88.1 ± 2.7 | 1030 ± 160 | 169.1 to 170.4 |
| O=C(Nc1ccc(Cl)c(Cl)c1)c1cccc(NS(=O)(=O)c2cccc([N+](=O)[O-])c2)c1 [Compound 5b3, N-(3,4-dichlorophenyl)-3-(3-nitrophenylsulfonamido)benzamide] | 62.4 ± 2.9 |  | 192.5 to 193.7 |
| O=C(Nc1ccc(Cl)c(Cl)c1)c1ccc(NS(=O)(=O)c2cccc([N+](=O)[O-])c2)cc1 [Compound 5c2, N-(3,4-Dichlorophenyl)-4-(3-nitrophenylsulfonamido)benzamide] | 34.8 ± 3.7 |  | 189.2 to 190.5 |
| O=C(Nc1cccc(OC(F)(F)F)c1)c1ccc(NS(=O)(=O)c2cccc([N+](=O)[O-])c2)cc1 [Compound 5c1, 4-(3-Nitrophenylsulfonamido)-N-(3-(trifluoromethoxy)phenyl)benzamide] | 29.6 ± 3.5 |  | 177.3 to 178.2 |
| COc1cccc(S(=O)(=O)Nc2ccccc2C(=O)Nc2ccc(Cl)cc2Cl)c1 [Compound 5f1, N-(2,4-Dichlorophenyl)-2-(3-methoxyphenylsulfonamido)benzamide] | 21.2 ± 3 |  | 138.8 to 139.7 |
| O=C(Nc1ccc(Cl)c(Cl)c1)c1ccccc1NS(=O)(=O)c1cccc(OC(F)(F)F)c1 [Compound 5g5, N-(3,4-Dichlorophenyl)-2-(3-(trifluoromethoxy)phenylsulfonamido)benzamide] | 80.8 ± 4.3 | 1220 ± 200 |  |
| O=C(Nc1cccc(OC(F)(F)F)c1)c1ccccc1NS(=O)(=O)c1cccc(F)c1 [Compound 5e4, 2-(3-Fluorophenylsulfonamido)-N-(3-(trifluoromethoxy)phenyl)benzamide] | 45.7 ± 3.6 |  | 166.8 to 168.7 |
| O=C(Nc1cc(F)cc(F)c1)c1ccccc1NS(=O)(=O)c1cccc([N+](=O)[O-])c1 [Compound 5a5, N-(3,5-Difluorophenyl)-2-(3-nitrophenylsulfonamido)benzamide] | 21.6 ± 4.1 |  | 181.1 to 181.9 |
| O=C(Nc1ccc(F)c(Cl)c1)c1ccccc1NS(=O)(=O)c1cccc([N+](=O)[O-])c1 [Compound 5a2, N-(3-Chloro-4-fluorophenyl)-2-(3-nitrophenylsulfonamido)benzamide] | 95.4 ± 3.3 | 1320 ± 280 | 203.4 to 204.1 |
